Assay results: article PMC8623398, “Investigation of the Mechanisms of Cytotoxic Activity of 1,3-Disubstituted Thiourea Derivatives” (Pharmaceuticals, 2021)
“And” between values parts separate entries of the source, which are not always exact repeats. Identical values can stand only once.

Key:
K-562 cells [1] = experiment: Trypan blue assay, K-562; format: cell-based, human; conditions: K-562, 72 h; for Cell Number × 10^5 / Viability (%): compound at IC50 concentration; for reduction in live cell number: IC50 concentration, vs control
Protocol: In order to estimate the tumor and normal cell population density and their viability after treatment with compounds 1–3, 8, and 9, the trypan blue dye exclusion assay was performed. The live cell number of all cancerous cells incubated for 72 h with the studied thioureas was considerably lower in comparison with the controls (Table 2; Figure S1A). The highest reduction in cell amount was denoted for both colon SW480 and SW620 cells treated with the dichlorophenyl derivative 2, and it accounted for 93%. […] Similarly, a noticeable decline in both colon cancer cell populations was observed after treatment with the ortho-substituted compound 8. The number of live cells equaled 12% and 18%, respectively, as compared to controls. This thiourea also led to a reduction of PC3 cells of 38%, and leukemia K-562 cell lines of 27%. The number of SW620 and PC3 cells decreased by 72% and 63% in the presence of para-substituted compound 9. However, the reducing influence of this thiourea on the number of other cancerous cells was at the level of 21–32%. […] A significant effect on the other studied pathological cells was also noticed and accounted for 32–46%. Furthermore, the derivative 3 reduced the amount of live cancer cells by 32–59%, of which its decreasing impact on colon cancer cells was the greatest.
The live cell count was assessed by the trypan blue exclusion dye assay using an automated cell counter (CountessTM Invitrogen, Waltham, MA, USA). Untreated cells were used as the control.

IL-6 level, PC3 cells = experiment: IL-6 level ELISA, PC3; format: cell-based, human; conditions: PC3, 72 h; for reduction of IL-6 level: IC50 concentration, vs control; for IL-6 Concentration: compound at IC50 concentration, ELISA
Protocol: Because of the low secretion of IL-6 by leukemic cells compared to solid tumors, and in addition to the lack of IL-6 receptors in K-562 cells, studies of the effect of derivatives 1–3, 8, and 9 on the inhibition of IL-6 release were carried out on primary and secondary solid tumor cells (SW480, SW620, and PC3). A remarkable inhibition of the IL-6 level was denoted for both colon cancer cell lines. Compound 2, identified as the strongest inhibitor, reduced the interleukin level by 54% (in SW480 cells) and 63% (SW620 cells). A significant effect was also observed in these cells for its structural isomer 3 (39% and 23% of inhibition, respectively). Additionally, compound 3 considerably affected the IL-6 level produced by PC3 cells, and reduced it by 33%. Similarly, the treatment with derivative 1 was effective for both colon cancer cells. In its presence, IL-6 release decreased by 28–36%, as compared to controls. For monosubstituted derivatives 8 and 9, the observed IL-6-reducing influence was weaker. They both inhibited IL-6 secretion in SW480 and SW620 cell lines by 25–32%. In contrast to compound 9, thiourea 8 additionally diminished the cytokine level in PC3 cells by 26%.
The IL-6 concentration in all studied cancer cells and normal HaCaT cell lines was measured by an ELISA kit (Diaclon SAS Besancon CEDEX, Besançon, France). […] IL-6 in cell culture supernatant was measured using the enzyme-linked immunosorbent assay in accordance with the manufacturer’s protocol.

HaCaT cells = experiment: Annexin V-FITC/PI flow cytometry, HaCaT; format: cell-based, human; conditions: 72 h, IC50 concentration, Annexin V-FITC/PI
Protocol: (§1) To estimate the mechanism of anticancer activity of the selected compounds 1–3, 8, and 9, their effect on both early and late apoptosis was evaluated by flow cytometry analysis. […] Additionally, visible late apoptosis-inducing properties in these cell lines were denoted for the compound 9 (47% ± 3.0%), which was twice as strong towards the colon tumor cells mentioned above. The apoptotic properties of analogs 3 and 8 in K-562 cells varied from 30% ± 1.6% to 33% ± 2.3%. […] Whereas the apoptosis-generating influence of derivatives 2 and 3 on normal keratinocytes was higher (29% and 23%), their selectivity measured by MTT methods is favorable. The obtained results are in agreement with the IC50 values assigned to pathological cancer cell lines. The cells were cultured and harvested under the conditions described in Section 3.2.1. […] The effect of these compounds on the process of early and late apoptosis and necrosis was determined as described previously by dual staining with Annexin V:FITC and propidium iodide, according to the manufacturer’s protocol (Becton Dickinson). The cells that were Annexin V:FITC positive and PI negative were identified as early apoptotic, and Annexin V:FITC and PI positive as late apoptotic or necrotic.

K-562 cells [2] = experiment: Annexin V-FITC/PI flow cytometry, K-562; format: cell-based, human; conditions: K-562, 72 h, IC50 concentration
Protocol: as §1

PC3 cells = experiment: Annexin V-FITC/PI flow cytometry, PC3; format: cell-based, human; conditions: PC3, 72 h, IC50 concentration
Protocol: as §1

SMILES	Cell Number × 10^5 (K-562 cells [1])	Viability (%) (K-562 cells [1])	reduction of IL-6 level (IL-6 level, PC3 cells)	IL-6 Concentration (IL-6 level, PC3 cells)	cells in late apoptosis (HaCaT cells)	cells in late apoptosis (K-562 cells [2])	reduction in live cell number (K-562 cells [1])	melting point	cells in late apoptosis (PC3 cells)
FC(F)(F)c1cccc(NC(S)=Nc2ccc(Cl)cc2Cl)c1 [Compound 3, 1-(2,4-dichlorophenyl)-3-[3-(trifluoromethyl)phenyl]thiourea]	3.0 ± 0.27 × 10^5	85 ± 1.20%	33%	7.3 ± 0.06 pg/mL	23%	–	–	–	–
FC(F)(F)c1cccc(NC(=S)Nc2ccc(Cl)cc2)c1 [Compound 9, 1-(4-chlorophenyl)-3-[3-(trifluoromethyl)phenyl]thiourea]	3.5 ± 0.22 × 10^5	90 ± 2.40%	–	9.9 ± 0.03 pg/mL	–	47% ± 3.0%	–	–	–
FC(F)(F)c1cccc(NC(=S)Nc2ccc(Cl)c(Cl)c2)c1 [Compound 2, 1-(3,4-dichlorophenyl)-3-[3-(trifluoromethyl)phenyl]thiourea]	1.0 ± 0.21 × 10^5	55 ± 1.03%	–	9.1 ± 0.04 pg/mL	29%	73% and 73% ± 2.0%	66%	–	–
Fc1ccc(NC(=S)Nc2cccc(C(F)(F)F)c2)cc1Cl [Compound 1, 1-(3-chloro-4-fluorophenyl)-3-[3-(trifluoromethyl)phenyl]thiourea]	1.8 ± 0.24 × 10^5	93 ± 2.05%	–	9.6 ± 0.02 pg/mL	–	74% ± 3.8%	–	–	–
FC(F)(F)c1ccc(NC(=S)Nc2cccc(C(F)(F)F)c2)cc1 [Compound 8, 1-[3-(trifluoromethyl)phenyl]-3-[4-(trifluoromethyl)phenyl]thiourea]	3.2 ± 0.14 × 10^5	88 ± 1.10%	26%	8.1 ± 0.08 pg/mL	–	–	27%	134 to 136 °C	25% ± 1.5%
